Assay results taken from patent US8765748B2, “Indazolyl, benzimidazolyl, benzotriazolyl substituted indolinone derivatives as kinase inhibitors useful in the treatment of cancer” (University Health Network, priority 2007, dated 2014).

How the values were obtained:
Assay in all cases: Kinase Selectivity Assay (CEREP, HTRF)
Type in all cases: biochemical
[1] = target: T1, CHK1 (Homo sapiens, UniProt O14757); conditions: read-out: % Inhibition at 10 μM Concentration, CHK1
T1 construct: CEREP, France (ran the assays)
T1 sequence (O14757 1-476): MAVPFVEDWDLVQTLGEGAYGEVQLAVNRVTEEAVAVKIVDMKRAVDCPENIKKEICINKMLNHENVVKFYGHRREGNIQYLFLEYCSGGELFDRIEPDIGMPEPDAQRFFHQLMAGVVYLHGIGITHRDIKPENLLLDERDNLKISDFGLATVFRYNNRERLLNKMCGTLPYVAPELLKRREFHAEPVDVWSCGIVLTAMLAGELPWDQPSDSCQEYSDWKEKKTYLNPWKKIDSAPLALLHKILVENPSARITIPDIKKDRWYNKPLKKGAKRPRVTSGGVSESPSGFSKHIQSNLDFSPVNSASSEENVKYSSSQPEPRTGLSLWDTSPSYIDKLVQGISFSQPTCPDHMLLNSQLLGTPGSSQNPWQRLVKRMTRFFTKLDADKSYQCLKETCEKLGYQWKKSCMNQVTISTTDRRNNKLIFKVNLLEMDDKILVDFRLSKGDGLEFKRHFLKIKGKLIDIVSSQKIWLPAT
Method: (§1) kinase, ROCK2, RSK2, Src kinase, Syk, and TRKA. The % Inhibition was determined

[2] = target: Src kinase (Homo sapiens, UniProt P12931); conditions: read-out: % Inhibition at 10 μM Concentration, Src
Method: as §1

[3] = target: T2, FGFR2 kinase (Homo sapiens, UniProt P21802); conditions: read-out: % Inhibition at 10 μM Concentration, FGFR2
T2 construct: CEREP, France (ran the assays)
Method: as §1

[4] = target: T3, ERK2 (P42mapk) (Homo sapiens, UniProt P28482); conditions: read-out: % Inhibition at 10 μM Concentration, ERK (P42mapk)
T3 construct: CEREP, France (ran the assays)
Method: as §1

[5] = target: T4, CSK (Homo sapiens, UniProt P41240); conditions: read-out: % Inhibition at 10 μM Concentration, CSK
T4 construct: CEREP, France (ran the assays)
Method: as §1

[6] = target: Ret (Homo sapiens, UniProt P07949); conditions: read-out: % Inhibition at 10 μM Concentration, Ret
Method: as §1

[7] = target: T5, EphB4 kinase (Homo sapiens, UniProt P54760); conditions: read-out: % Inhibition at 10 μM Concentration, EphB4
T5 construct: CEREP, France (ran the assays)
T5 sequence (P54760 16-987): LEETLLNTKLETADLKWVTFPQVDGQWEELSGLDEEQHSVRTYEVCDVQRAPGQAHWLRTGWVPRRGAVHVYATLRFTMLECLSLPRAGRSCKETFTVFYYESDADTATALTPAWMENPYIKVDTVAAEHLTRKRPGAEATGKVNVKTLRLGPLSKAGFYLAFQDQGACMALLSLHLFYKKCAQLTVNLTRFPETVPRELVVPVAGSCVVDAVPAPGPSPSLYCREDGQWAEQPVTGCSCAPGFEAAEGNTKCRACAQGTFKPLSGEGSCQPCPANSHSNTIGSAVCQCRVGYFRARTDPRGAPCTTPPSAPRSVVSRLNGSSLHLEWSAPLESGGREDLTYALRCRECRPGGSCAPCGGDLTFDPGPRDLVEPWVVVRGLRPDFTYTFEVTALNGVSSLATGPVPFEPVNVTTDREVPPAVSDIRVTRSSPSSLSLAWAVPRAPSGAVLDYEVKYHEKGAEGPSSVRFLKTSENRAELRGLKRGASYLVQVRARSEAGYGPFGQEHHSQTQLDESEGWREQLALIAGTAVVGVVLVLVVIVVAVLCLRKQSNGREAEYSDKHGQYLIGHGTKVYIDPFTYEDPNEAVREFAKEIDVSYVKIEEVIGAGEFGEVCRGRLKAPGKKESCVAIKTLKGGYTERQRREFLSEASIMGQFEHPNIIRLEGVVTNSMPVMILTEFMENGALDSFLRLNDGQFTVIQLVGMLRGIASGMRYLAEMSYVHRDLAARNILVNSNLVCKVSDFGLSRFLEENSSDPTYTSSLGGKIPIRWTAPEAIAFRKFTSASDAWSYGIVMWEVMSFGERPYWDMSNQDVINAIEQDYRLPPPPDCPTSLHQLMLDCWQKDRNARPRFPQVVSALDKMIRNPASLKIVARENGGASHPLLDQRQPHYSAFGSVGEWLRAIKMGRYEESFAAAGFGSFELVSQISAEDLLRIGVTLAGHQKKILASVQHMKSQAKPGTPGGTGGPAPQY
Method: as §1

[8] = target: IGF1R kinase (Homo sapiens, UniProt P08069); conditions: read-out: % Inhibition at 10 μM Concentration, IGF1R
Method: as §1

[9] = target: PKCb2 (Homo sapiens, UniProt P05771); conditions: read-out: % Inhibition at 10 μM Concentration, PKCbeta 2
Method: as §1

[10] = target: p38a kinase (Homo sapiens, UniProt Q16539); conditions: read-out: % Inhibition at 10 μM Concentration, p38alpha
Method: as §1

[11] = target: T6, FGFR4 kinase (Homo sapiens, UniProt P22455); conditions: read-out: % Inhibition at 10 μM Concentration, FGFR4
T6 construct: CEREP, France (ran the assays)
Method: as §1

[12] = target: Fyn kinase (Homo sapiens, UniProt P06241); conditions: read-out: % Inhibition at 10 μM Concentration, Fyn
Method: as §1

Chain of IGF1R kinase (P08069 31-1367): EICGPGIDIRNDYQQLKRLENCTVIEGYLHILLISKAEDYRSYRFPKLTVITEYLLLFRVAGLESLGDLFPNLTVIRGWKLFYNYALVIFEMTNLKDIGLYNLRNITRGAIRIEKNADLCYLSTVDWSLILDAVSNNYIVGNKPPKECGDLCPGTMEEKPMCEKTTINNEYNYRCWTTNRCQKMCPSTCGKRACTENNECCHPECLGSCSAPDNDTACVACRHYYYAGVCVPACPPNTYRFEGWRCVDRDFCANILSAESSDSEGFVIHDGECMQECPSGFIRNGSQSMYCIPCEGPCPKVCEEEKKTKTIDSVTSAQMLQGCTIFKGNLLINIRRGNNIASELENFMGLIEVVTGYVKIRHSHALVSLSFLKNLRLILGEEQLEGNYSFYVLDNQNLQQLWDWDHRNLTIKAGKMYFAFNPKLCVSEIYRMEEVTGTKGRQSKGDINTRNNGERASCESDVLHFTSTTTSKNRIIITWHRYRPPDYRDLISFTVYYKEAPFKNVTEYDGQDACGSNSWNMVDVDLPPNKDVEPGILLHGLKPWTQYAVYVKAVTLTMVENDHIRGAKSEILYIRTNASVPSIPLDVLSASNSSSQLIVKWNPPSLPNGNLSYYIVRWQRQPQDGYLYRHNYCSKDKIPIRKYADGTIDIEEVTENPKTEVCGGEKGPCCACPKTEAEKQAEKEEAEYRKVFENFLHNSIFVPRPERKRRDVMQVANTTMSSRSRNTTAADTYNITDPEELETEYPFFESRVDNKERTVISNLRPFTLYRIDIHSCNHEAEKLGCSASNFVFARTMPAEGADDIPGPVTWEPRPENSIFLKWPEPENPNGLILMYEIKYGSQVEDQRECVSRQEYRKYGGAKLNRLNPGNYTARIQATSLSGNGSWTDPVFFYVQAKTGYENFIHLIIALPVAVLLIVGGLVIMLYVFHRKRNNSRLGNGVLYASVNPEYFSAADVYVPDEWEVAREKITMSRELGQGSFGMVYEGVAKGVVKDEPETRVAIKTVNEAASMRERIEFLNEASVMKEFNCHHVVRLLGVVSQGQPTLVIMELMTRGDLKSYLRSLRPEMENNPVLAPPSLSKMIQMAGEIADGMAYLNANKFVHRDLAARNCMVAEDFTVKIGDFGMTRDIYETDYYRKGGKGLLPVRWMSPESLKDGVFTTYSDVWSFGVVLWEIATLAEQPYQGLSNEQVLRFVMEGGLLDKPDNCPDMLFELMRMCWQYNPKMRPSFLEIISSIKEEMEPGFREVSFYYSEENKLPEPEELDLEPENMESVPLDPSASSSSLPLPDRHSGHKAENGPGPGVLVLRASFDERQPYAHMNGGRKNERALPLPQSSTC
Chain of Ret (P07949 29-1114): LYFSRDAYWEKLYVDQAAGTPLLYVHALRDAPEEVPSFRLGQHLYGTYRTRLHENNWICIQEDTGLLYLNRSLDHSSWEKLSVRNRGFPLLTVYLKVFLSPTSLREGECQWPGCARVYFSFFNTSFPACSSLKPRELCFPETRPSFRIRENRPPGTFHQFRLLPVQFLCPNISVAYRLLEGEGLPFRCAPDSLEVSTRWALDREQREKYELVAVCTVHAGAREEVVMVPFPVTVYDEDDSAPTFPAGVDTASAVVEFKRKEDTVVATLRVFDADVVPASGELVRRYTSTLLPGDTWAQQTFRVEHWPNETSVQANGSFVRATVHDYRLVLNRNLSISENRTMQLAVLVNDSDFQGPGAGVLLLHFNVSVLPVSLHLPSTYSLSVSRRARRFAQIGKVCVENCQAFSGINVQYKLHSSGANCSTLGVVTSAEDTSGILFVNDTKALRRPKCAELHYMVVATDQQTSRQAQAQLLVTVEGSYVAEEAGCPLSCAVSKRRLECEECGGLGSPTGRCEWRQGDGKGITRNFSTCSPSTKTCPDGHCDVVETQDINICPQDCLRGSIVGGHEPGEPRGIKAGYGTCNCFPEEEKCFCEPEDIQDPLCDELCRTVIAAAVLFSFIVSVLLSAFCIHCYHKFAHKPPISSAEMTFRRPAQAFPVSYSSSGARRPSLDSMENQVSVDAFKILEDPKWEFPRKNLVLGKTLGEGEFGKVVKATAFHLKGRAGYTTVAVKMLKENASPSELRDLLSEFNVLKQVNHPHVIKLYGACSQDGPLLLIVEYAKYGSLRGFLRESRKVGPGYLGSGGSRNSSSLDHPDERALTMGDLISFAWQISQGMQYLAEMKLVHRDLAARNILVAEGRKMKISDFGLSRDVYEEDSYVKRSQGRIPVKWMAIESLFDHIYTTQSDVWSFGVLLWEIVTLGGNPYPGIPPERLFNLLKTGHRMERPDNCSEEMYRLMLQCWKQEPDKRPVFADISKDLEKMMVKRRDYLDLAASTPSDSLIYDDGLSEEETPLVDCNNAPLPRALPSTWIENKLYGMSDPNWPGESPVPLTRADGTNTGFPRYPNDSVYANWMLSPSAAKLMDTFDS
Chain of PKCb2 (P05771 1-673 isoform P05771-2): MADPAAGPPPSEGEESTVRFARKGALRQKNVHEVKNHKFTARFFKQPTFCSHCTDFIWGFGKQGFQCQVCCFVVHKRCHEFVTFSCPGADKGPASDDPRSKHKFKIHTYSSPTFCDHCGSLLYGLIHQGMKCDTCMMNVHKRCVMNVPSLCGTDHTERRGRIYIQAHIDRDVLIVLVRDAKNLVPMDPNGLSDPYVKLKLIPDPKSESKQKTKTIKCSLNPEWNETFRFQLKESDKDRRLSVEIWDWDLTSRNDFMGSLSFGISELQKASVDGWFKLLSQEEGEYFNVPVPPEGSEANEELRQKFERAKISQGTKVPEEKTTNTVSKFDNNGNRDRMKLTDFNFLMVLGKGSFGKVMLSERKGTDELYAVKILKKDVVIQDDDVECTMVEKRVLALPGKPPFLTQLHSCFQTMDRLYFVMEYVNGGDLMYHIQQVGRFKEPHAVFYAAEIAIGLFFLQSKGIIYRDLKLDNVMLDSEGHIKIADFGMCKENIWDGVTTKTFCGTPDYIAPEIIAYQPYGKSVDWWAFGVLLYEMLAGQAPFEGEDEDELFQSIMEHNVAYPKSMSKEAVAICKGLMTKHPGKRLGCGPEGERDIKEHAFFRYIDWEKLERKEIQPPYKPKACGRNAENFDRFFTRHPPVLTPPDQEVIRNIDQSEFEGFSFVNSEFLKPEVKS
Chain of p38a kinase (Q16539 whole entry): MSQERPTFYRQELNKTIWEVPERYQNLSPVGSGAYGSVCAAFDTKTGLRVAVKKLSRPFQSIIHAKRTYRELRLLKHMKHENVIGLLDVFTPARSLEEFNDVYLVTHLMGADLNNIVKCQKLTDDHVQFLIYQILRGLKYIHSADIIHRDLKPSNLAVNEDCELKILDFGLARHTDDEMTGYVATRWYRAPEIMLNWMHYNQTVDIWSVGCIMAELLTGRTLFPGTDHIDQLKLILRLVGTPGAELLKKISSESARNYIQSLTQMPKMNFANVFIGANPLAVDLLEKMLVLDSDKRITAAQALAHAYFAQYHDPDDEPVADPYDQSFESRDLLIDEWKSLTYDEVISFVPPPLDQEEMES
Chain of Src kinase (P12931 whole entry): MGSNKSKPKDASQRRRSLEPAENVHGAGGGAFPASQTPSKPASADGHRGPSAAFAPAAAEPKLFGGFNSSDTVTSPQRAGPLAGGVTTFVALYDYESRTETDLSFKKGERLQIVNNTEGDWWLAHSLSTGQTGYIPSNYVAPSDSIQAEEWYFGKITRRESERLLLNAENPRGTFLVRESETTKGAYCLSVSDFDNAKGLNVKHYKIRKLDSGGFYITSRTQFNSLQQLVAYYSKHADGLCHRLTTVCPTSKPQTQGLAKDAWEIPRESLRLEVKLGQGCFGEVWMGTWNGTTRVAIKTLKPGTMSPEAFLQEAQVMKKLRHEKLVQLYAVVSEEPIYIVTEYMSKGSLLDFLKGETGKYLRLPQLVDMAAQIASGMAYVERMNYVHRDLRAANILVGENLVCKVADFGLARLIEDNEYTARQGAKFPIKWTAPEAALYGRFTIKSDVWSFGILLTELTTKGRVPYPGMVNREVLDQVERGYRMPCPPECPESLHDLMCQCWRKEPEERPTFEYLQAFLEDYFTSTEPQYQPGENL
T3 sequence (P28482 whole entry): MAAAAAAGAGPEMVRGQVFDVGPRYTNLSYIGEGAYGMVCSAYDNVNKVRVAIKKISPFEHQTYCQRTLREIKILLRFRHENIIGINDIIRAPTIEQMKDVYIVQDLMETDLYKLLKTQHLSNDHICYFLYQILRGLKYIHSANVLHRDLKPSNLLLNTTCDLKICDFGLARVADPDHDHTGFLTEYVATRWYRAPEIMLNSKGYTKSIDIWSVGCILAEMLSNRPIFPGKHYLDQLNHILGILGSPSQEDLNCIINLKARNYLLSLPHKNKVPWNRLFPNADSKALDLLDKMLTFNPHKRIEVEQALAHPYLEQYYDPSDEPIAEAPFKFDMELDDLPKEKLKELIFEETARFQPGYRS
T4 sequence (P41240 whole entry): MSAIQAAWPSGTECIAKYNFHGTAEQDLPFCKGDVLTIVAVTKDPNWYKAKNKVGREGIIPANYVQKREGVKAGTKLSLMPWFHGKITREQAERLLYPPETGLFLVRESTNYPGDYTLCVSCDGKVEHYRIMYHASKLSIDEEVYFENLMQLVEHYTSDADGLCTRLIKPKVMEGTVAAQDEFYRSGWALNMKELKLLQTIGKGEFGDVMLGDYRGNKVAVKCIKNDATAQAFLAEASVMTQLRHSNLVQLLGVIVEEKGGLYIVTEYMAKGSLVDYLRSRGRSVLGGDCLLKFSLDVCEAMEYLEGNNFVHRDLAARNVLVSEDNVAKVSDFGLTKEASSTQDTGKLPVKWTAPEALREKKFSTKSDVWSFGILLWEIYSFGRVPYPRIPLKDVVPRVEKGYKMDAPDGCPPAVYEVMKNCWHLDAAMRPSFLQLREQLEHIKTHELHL

SMILES | inhibition at 10 µM [1] | inhibition at 10 µM [2] | inhibition at 10 µM [3] | inhibition at 10 µM [4] | inhibition at 10 µM [5] | inhibition at 10 µM [6] | inhibition at 10 µM [7] | inhibition at 10 µM [8] | inhibition at 10 µM [9] | inhibition at 10 µM [10] | inhibition at 10 µM [11] | inhibition at 10 µM [12]
O=C1Nc2ccccc2/C1=C\c1ccc2c(/C=C/c3ccccc3Cl)n[nH]c2c1 [Example A60, (E)-3-((3-((E)-2-chlorostyryl)-1H-indazol-6-yl)methylene)indolin-2-one] | -1% | 0% | 10% | 2% | 17% | 33% | -14% | 81% | 4% | 1% | 6% | 70%
O=C1Nc2ccccc2C1=Cc1ccc2c(/C=C/c3ccccn3)n[nH]c2c1 (mixture of isomers) [Example A41, (E and Z)-3-((3-((E)-2-(pyridin-2-yl)vinyl)-1H-indazol-6-yl)methylene)indolin-2-one] | 7% | 59% | 97% | 14% | 86% | 98% | 85% | 43% | 12% | 16% | 38% | 91%
O=C1Nc2ccccc2/C1=C\c1ccc2[nH]nnc2c1 [Example A1, (E)-3-((1H-benzo[d][1,2,3]triazol-5-yl)methylene)indolin-2-one] | -6% | 10% | 68% | 3% | 8% | 67% | 5% | 7% | 0% | -8% | 18% | 24%
COc1ccc2c(c1)C(=Cc1ccc3c(-c4ccc(N5CCN(C)CC5)nc4)n[nH]c3c1)C(=O)N2 (mixture of isomers) [Example A97, (E and Z)-5-methoxy-3-((3-(6-(4-methylpiperazin-1-yl)pyridin-3-yl)-1H-indazol-6-yl)methylene)indolin-2-one] | 3% | 24% | 35% | -9% | 51% | 93% | 6% | 4% | 37% | 11% | 30% | 13%
O=C1Nc2ccccc2/C1=C\c1ccc2cn[nH]c2c1 [Example A5, (E)-3-((1H-indazol-6-yl)methylene)indolin-2-one] | -2% | -9% | 31% | 0% | 5% | 41% | -5% | -4% | 2% | 18% | -4% | 5%
